Assay results reported in patent US20210277428A1, “NOVEL MALONYL-COA BIOSENSOR BASED ON TYPE III […] AND USE THEREOF” (KOREA ADVANCED INSTITUTE OF SCIENCE AND TECHNOLOGY, priority 2018, published 2021).

Columns and labels:
[1] = test system: E. coli BL21(DE3) strains expressing AaOKS, AaPKS4 and AaPKS5; test: AaOKS, AaPKS4 and AaPKS5 malonyl-CoA biosensor experiments using cerulenin; type: cell-based; conditions: different concentrations of cerulenin added to the medium
[2] = test system: E. coli BL21(DE3) strain containing the plasmid pTac-5′UTR-Sgr_rppA; test: RppA malonyl-CoA biosensor characterization with cerulenin in E. coli; type: cell-based
Description: After construction of a malonyl-CoA biosensor based on S. griseus RppA, the following experiment was performed in order to examine the applicability of the biosensor. First, the signal of the RppA malonyl-CoA biosensor was defined as the absorbance of culture supernatant at 340 nm (FIG. 3D). Generally, for characterizing a biosensor, different concentrations of a target compound has to be added to examine whether an increased signal occur. However, because malonyl-CoA is a substance that cannot pass through the cell membrane, adding malonyl-CoA to medium is meaningless. Thus, cerulenin (Sigma-aldrich, USA) known to block fatty acid biosynthetic pathways was used to indirectly characterize the biosensor (Omura S (1976), Bacteriol Rev 40:681-697.). Cerulenin blocks fatty acid biosynthetic pathways, and thus leads to the accumulation of malonyl-CoA, a fatty acid precursor. Thus, the concentration of malonyl-CoA in E. coli according to addition of different concentrations of cerulenin as described in previous studies was measured (Xu P, Li L, Zhang F, Stephanopoulos G, Koffas M (2014), Proc Natl Acad Sci USA 111:11299-11304). […] The inoculated cells were cultured in an incubator at 30° C. and 220 rpm for 16 hours, and then the growth (OD600) of the cells and the absorbance at 340 nm of the culture supernatant were measured. […]

[3] = test system: P. putida pBBR1-rppA strain; test: RppA malonyl-CoA biosensor characterization with cerulenin in P. putida; type: cell-based, Pseudomonas putida; conditions: MR-MOPS medium, increasing cerulenin concentration
[4] = test system: C. glutamicum pCES-His-rppA strain; test: RppA malonyl-CoA biosensor characterization with cerulenin in C. glutamicum; type: cell-based, Corynebacterium glutamicum; conditions: increasing cerulenin concentration

SMILES: C/C=C/C/C=C/CCC(=O)[C@H]1O[C@H]1C(N)=O [cerulenin]
- signal (absorbance at 300 nm of the culture supernatant) [1]: signal generated from each strain increased as the intracellular malonyl-CoA concentration increased
- normalized signal (absorbance of culture supernatant at 340 nm) ([2]; cerulenin 0, 5, 10, 15, 20, 25, 50, and 100 μM, 16 hours, 30° C., compared to the strain that does not express RppA): obviously increased as the concentration of cerulenin increased
- normalized production of flaviolin ([2]; increasing cerulenin concentration, also observed by the naked eyes): increased with increasing cerulenin concentration
- normalized production of flaviolin [3]: increased as the cerulenin concentration in the corresponding strain increased
- normalized signal [3]: increased as the cerulenin concentration in the corresponding strain increased
- normalized production of flaviolin [4]: increased as the cerulenin concentration in the corresponding strain increased
- normalized signal [4]: increased as the cerulenin concentration in the corresponding strain increased
